In patent US20260285863A1, “COMPOUNDS CAPABLE OF MODULATING GPR65” (Pathios Therapeutics Limited, priority 2023, published 2026):

Each molecule was assayed against T1, human recombinant GPR65 (Homo sapiens, UniProt Q8IYL9) (assay: Human GPR65 cAMP HTRF antagonist assay). Settings: 1321N1-hrGPR65 cells, assay pH 7.2, cAMP HTRF; read-out: hGPR65 IC50.
T1 construct: host or cells: 1321N1 human astrocytoma cells (1321N1-hrGPR65)
Format: cell-based
From the text: The “Human GPR65 cyclic adenosine monophosphate (cAMP) Homogeneous Time Resolved Fluorescence (HTRF) antagonist assay”, or simply “cAMP assay”, as described in the accompanying examples, can be used to measure the potency of GPR65 modulators, which is expressed as the concentration of compound required to reduce the increase in cAMP concentration upon GPR65 activation by 50% (i.e. an IC50).
Human GPR65 Cyclic Adenosine Monophosphate (cAMP) Homogeneous Time Resolved Fluorescence (HTRF) Antagonist Assay Procedure
IC50data was obtained by the following procedure:
1321N1 human astrocytoma cells stably expressing human recombinant GPR65 (1321N1-hrGPR65 cells, EuroscreenFast) were cultured according to the vendor's instructions.
Compounds were tested for their ability to antagonise GPR65, through measuring the concentration of cytoplasmic cAMP following treatment of the cells at a pH of 7.2 to activate GPR65 signalling and addition of the compound to be tested. The extent to which the expected rise in cAMP concentration upon GPR65 activation was suppressed by the added compound is indicative of its potency. The assay was carried out according to EuroscreenFast assay Methodology as follows.
On the day of the assay, test compounds were added to 384-well, low volume, white microtiter plates by acoustic dispensing. KRH buffer (5 mM KCl, 1.25 mM MgSO4, 124 mM NaCl, 25 mM HEPES, 13.3 mM Glucose, 1.25 mM KH2PO4 and 1.45 mM CaCl2) was adjusted to pH 6.5, pH 7.6 and pH 8.4 by adding NaOH. 1321N1-hGPR65 cells were rapidly thawed and diluted in KRH, pH 7.6 prior to centrifugation at 300×g for 5 min and resuspension in assay buffer (KRH, pH 7.6, supplemented with 1 mM 3-isobutyl-1-methylxanthine (IBMX) and 200 μM ethylenediaminetetraacetic acid (EDTA)). Cells were added to assay plates at a density of 2,000 cells per well in a volume of […]. Assay plates were briefly centrifuged at 100×g and then incubated at room temperature for 30 min. Cells were stimulated by the addition of 5 μL KRH, pH 6.5, to achieve an assay pH of 7.2, while control wells received […] KRH, pH 8.4 to achieve an assay pH of 7.9. Assay plates were briefly centrifuged at 100×g and then incubated at room temperature for 30 min.
Accumulation of cAMP was detected by cAMP HTRF kit (Cisbio). d2-labeled cAMP and cryptate-labeled anti-cAMP antibody in Lysis and Detection Buffer (Cisbio) were added to assay plates, and the plates were incubated at room temperature for 1 h. HTRF measurements were performed using a Pherastar FSX instrument. Acceptor and donor emission signals were measured at 665 nm and 620 nm, respectively, and HTRF ratios were calculated as signal665 nm/signal620 nm×104. Data were normalised to high and low control values and fitted with 4-parameter logistic regression to determine hGPR65 IC50 values for the test compounds, which are shown in Table 1.

T1 sequence (Q8IYL9 whole entry): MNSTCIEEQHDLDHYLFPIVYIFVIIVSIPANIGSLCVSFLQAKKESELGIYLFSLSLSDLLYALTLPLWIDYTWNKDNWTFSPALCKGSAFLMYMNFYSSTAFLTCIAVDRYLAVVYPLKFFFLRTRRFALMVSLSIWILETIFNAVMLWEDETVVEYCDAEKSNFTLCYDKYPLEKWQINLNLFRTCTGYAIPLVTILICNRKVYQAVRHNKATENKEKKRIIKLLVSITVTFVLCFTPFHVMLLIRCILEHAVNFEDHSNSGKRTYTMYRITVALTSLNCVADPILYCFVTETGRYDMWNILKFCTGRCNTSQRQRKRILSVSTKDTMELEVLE

`O=C(Nc1cc(Cl)c(-c2ccc(OCC3CCOC3)nc2)cc1F)N1[C@H]2CC[C@@H]1c1n[nH]c(=O)cc1C2` (stereo partly drawn) [Compound 41, (6S,9R)-N-(5-chloro-2-fluoro-4-(6-((tetrahydrofuran-3-yl)methoxy)pyridin-3-yl)phenyl)-3-oxo-3,5,6,7,8,9-hexahydro-2H-6,9-epiminocyclohepta[c]pyridazine-10-carboxamide] and `O=C(Nc1cc(Cl)c(-c2ccc(OCC3CCC3)nc2)cc1F)N1[C@H]2CC[C@@H]1c1n[nH]c(=O)cc1C2` [Compound 20, (6S,9R)-N-(5-chloro-4-(6-(cyclobutylmethoxy)pyridin-3-yl)-2-fluorophenyl)-3-oxo-3,5,6,7,8,9-hexahydro-2H-6,9-epiminocyclohepta[c]pyridazine-10-carboxamide] cannot be ordered by IC50: under 500 nM for the first, under 500 nM for the second.

`O=C(Nc1cc(Cl)c(Cl)cn1)N1C2CCC1[C@H](F)c1c2ccnc1F` (mixture of isomers) [Compound 35, (±)(9S)-N-(4,5-dichloropyridin-2-yl)-1,9-difluoro-6,7,8,9-tetrahydro-5H-5,8-epiminocyclohepta[c]pyridine-10-carboxamide] and `O=C(Nc1cc(Cl)c(Cl)cn1)N1C2CCC1C(F)(F)c1c2ccnc1F` (racemic) [Compound 36, (±)-N-(4,5-dichloropyridin-2-yl)-1,9,9-trifluoro-6,7,8,9-tetrahydro-5H-5,8-epiminocyclohepta[c]pyridine-10-carboxamide] cannot be ordered by IC50: under 500 nM for the first, under 500 nM for the second.

`CN(CC(F)(F)F)c1cc(-c2cc(F)c(NC(=O)N3[C@H]4CC[C@@H]3c3c[nH]c(=O)cc3C4)cc2Cl)ccn1` [Compound 43, (6S,9R)-N-(5-chloro-2-fluoro-4-(2-(methyl(2,2,2-trifluoroethyl)amino)pyridin-4-yl)phenyl)-3-oxo-3,5,6,7,8,9-hexahydro-2H-6,9-epiminocyclohepta[c]pyridine-10-carboxamide] and `O=C(Nc1cc(Cl)c(-c2ccc(OC(C(F)F)C(F)F)nc2)cc1F)N1[C@H]2CC[C@@H]1c1c[nH]c(=O)cc1C2` [Compound 13, (6S,9R)-N-(5-chloro-2-fluoro-4-(6-((1,1,3,3-tetrafluoropropan-2-yl)oxy)pyridin-3-yl)phenyl)-3-oxo-3,5,6,7,8,9-hexahydro-2H-6,9-epiminocyclohepta[c]pyridine-10-carboxamide] cannot be ordered by IC50: under 500 nM for the first, under 500 nM for the second.

`O=C(Nc1cc(Cl)c(-c2ccc(OCC(F)(F)F)nc2)cc1F)N1C2CCC1C(F)(F)c1c2ccnc1F` (racemic) [Compound 70, (±)-N-(5-Chloro-2-fluoro-4-(6-(2,2,2-trifluoroethoxy)pyridin-3-yl)phenyl)-1,9,9-trifluoro-6,7,8,9-tetrahydro-5H-5,8-epiminocyclohepta[c]pyridine-10-carboxamide] and `O=C(Nc1cc(Cl)c(-c2ccc(OCC(F)(F)F)nc2)cc1F)N1[C@@H]2CC[C@H]1C(F)(F)c1c2ccnc1F` [Compound 71, (5R,8S)-N-(5-Chloro-2-fluoro-4-(6-(2,2,2-trifluoroethoxy)pyridin-3-yl)phenyl)-1,9,9-trifluoro-6,7,8,9-tetrahydro-5H-5,8-epiminocyclohepta[c]pyridine-10-carboxamide] cannot be ordered by IC50: under 500 nM for the first, under 500 nM for the second.

First: O=C1c2ccc(NC(=O)N3[C@H]4CC[C@@H]3c3n[nH]c(=O)cc3C4)cc2C(=O)N1c1ccc(OCC(F)(F)F)nc1 [Compound 91, (6S,9R)-N-(1,3-Dioxo-2-(6-(2,2,2-trifluoroethoxy)pyridin-3-yl)isoindolin-5-yl)-3-oxo-3,5,6,7,8,9-hexahydro-2H-6,9-epiminocyclohepta[c]pyridazine-10-carboxamide]
Second: O=C(Nc1cc(Cl)c(-c2ccc(OCC(F)(F)F)nn2)cc1F)N1[C@H]2CC[C@@H]1c1n[nH]c(=O)cc1C2 [Compound 6, (6S,9R)-N-(5-chloro-2-fluoro-4-(6-(2,2,2-trifluoroethoxy)pyridazin-3-yl)phenyl)-3-oxo-3,5,6,7,8,9-hexahydro-2H-6,9-epiminocyclohepta[c]pyridazine-10-carboxamide]
The IC50 of the first is higher: 500 to 5000 nM for the first, under 500 nM for the second. The second is the more potent here.

`O=C(Nc1cc(Cl)c(-c2ccc(OCC34COC(C3)C4)nc2)cc1F)N1[C@H]2CC[C@@H]1c1n[nH]c(=O)cc1C2` [Compound 1, (6S,9R)-N-(4-(6-((2-oxabicyclo[2.1.1]hexan-4-yl)methoxy)pyridin-3-yl)-5-chloro-2-fluorophenyl)-3-oxo-3,5,6,7,8,9-hexahydro-2H-6,9-epiminocyclohepta[c]pyridazine-10-carboxamide] and `O=C(Nc1cc(Cl)c(-c2ccc(OC[C@@H]3CC3(F)F)nc2)cc1F)N1[C@H]2CC[C@@H]1c1n[nH]c(=O)cc1C2` [Compound 83, (6S,9R)-N-(5-Chloro-4-(6-(((S)-2,2-difluorocyclopropyl)methoxy)pyridin-3-yl)-2-fluorophenyl)-3-oxo-3,5,6,7,8,9-hexahydro-2H-6,9-epiminocyclohepta[c]pyridazine-10-carboxamide] cannot be ordered by IC50: under 500 nM for the first, under 500 nM for the second.

First: O=C(Nc1cc(Cl)c(-c2ccc(OCC3CCC3)nc2)cc1F)N1[C@H]2CC[C@@H]1c1c[nH]c(=O)cc1C2 [Compound 28, (6S,9R)-N-(5-chloro-4-(6-(cyclobutylmethoxy)pyridin-3-yl)-2-fluorophenyl)-3-oxo-3,5,6,7,8,9-hexahydro-2H-6,9-epiminocyclohepta[c]pyridine-10-carboxamide]
Second: O=C(Nc1cc(Cl)c(-c2ccc(OCC34CNC(C3)C4)nc2)cc1F)N1[C@H]2CC[C@@H]1c1c[nH]c(=O)cc1C2 [Compound 60, (6S,9R)-N-(4-(6-((2-azabicyclo[2.1.1]hexan-4-yl)methoxy)pyridin-3-yl)-5-chloro-2-fluorophenyl)-3-oxo-3,5,6,7,8,9-hexahydro-2H-6,9-epiminocyclohepta[c]pyridine-10-carboxamide]
The IC50 of the first is lower: under 500 nM for the first, 500 to 5000 nM for the second.

`O=C(Nc1cc(Cl)c(Cl)cc1F)N1[C@H]2CC[C@@H]1c1cc[n+]([O-])cc1C2` [Compound 66, (5R,8S)-10-((4,5-dichloro-2-fluorophenyl)carbamoyl)-6,7,8,9-tetrahydro-5H-5,8-epiminocyclohepta[c]pyridine 2-oxide] and `O=C(Nc1cc(Cl)c(C(F)(F)F)cc1F)N1[C@H]2CC[C@@H]1c1cc[n+]([O-])cc1C2` [Compound 67, (5R,8S)-10-((5-chloro-2-fluoro-4-(trifluoromethyl)phenyl)carbamoyl)-6,7,8,9-tetrahydro-5H-5,8-epiminocyclohepta[c]pyridine 2-oxide] cannot be ordered by IC50: under 500 nM for the first, under 500 nM for the second.

`N#Cc1cc(NC(=O)N2[C@H]3CC[C@@H]2c2ccnc(F)c2C3)c(F)cc1Cl` [Compound 45, (5R,8S)-N-(4-chloro-5-cyano-2-fluorophenyl)-1-fluoro-6,7,8,9-tetrahydro-5H-5,8-epiminocyclohepta[c]pyridine-10-carboxamide] and `O=C(Nc1cc(Cl)c(-c2ccc(OCC(F)(F)F)nc2)cc1F)N1[C@H]2CC[C@@H]1C(F)(F)c1c2ccnc1F` [Compound 72, (5S,8R)-N-(5-Chloro-2-fluoro-4-(6-(2,2,2-trifluoroethoxy)pyridin-3-yl)phenyl)-1,9,9-trifluoro-6,7,8,9-tetrahydro-5H-5,8-epiminocyclohepta[c]pyridine-10-carboxamide] cannot be ordered by IC50: under 500 nM for the first, under 500 nM for the second.

Going from `COCCOCCO[C@H]1C[C@H](Oc2ccc(-c3cc(F)c(NC(=O)N4[C@H]5CC[C@@H]4c4c[nH]c(=O)cc4C5)cc3Cl)cn2)C1` [Compound 22, (6S,9R)-N-(5-chloro-2-fluoro-4-(6-((1r,3R)-3-(2-(2-methoxyethoxy)ethoxy)cyclobutoxy)pyridin-3-yl)phenyl)-3-oxo-3,5,6,7,8,9-hexahydro-2H-6,9-epiminocyclohepta[c]pyridine-10-carboxamide] to `O=C(Nc1cc(Cl)c(Cl)cc1OCC1CC1(F)F)N1[C@H]2CC[C@@H]1c1n[nH]c(=O)cc1C2` (stereo partly drawn) [Compound 88, (6S,9R)-N-(4,5-Dichloro-2-((2,2-difluorocyclopropyl)methoxy)phenyl)-3-oxo-3,5,6,7,8,9-hexahydro-2H-6,9-epiminocyclohepta[c]pyridazine-10-carboxamide], the IC50 rises from under 500 nM to over 5000 nM.
